Data on 9 molecules can be found in patent US6221914A, “Sulfonamide bridging compounds that inhibit tryptase activity” (Array Biopharma Inc., priority 1998, dated 2001).

Common to all, as to type: biochemical
In assay [1] the target is T1, Human Neutrophil elastase (Homo sapiens, UniProt P08246).
T1 construct: from tissue; host or cells: human neutrophils
T1 sequence (P08246 30-267): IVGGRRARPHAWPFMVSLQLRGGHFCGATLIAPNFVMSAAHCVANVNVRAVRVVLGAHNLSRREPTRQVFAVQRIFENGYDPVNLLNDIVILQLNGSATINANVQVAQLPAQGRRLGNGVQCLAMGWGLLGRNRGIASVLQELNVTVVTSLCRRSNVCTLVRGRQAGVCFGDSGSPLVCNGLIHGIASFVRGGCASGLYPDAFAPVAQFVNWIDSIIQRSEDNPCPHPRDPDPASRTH
Kind of assay: Ki determination, human neutrophil elastase (pyroGlu-Pro-Val-pNA). The following applies: 100 mM Tris-HCl, pH 8.3, 0.96 M NaCl, 1% BSA; read-out: Experimentally Determined Ki, Elastase. The essentials:
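Enzyme preincubated with compound 15 min at 37° C. in 100 mM Tris-HCl pH 8.3, 0.96 M NaCl, 1% BSA, then pyroGlu-Pro-Val-pNA added; p-nitroaniline release read at 405 nm. Ki from tight-binding equation (active-site-titrated enzyme) corrected for substrate, or competitive-inhibitor equation when Ki >> [E]o.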

For another assay, the target named is T2, Human plasma factor Xa (Homo sapiens, UniProt P00742).
T2 construct: from tissue; host or cells: human plasma
Kind of assay: Ki determination, human plasma factor Xa (N-Benzoyl-Ile-Glu-Gly-Arg-pNA). The following applies: 50 mM Tris-HCl, pH 7.8, 200 mM NaCl, 0.05% BSA; read-out: Experimentally Determined Ki, Factor Xa. The essentials: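 Enzyme preincubated with compound 15 min at 37° C in 50 mM Tris-HCl pH 7.8, 200 mM NaCl, 0.05% BSA, then N-Benzoyl-Ile-Glu-Gly-Arg-pNA added and p-nitroaniline read at 405 nm. Ki from tight-binding equation with active-site-titrated enzyme, corrected for substrate, or from competitive-inhibitor equations when Ki >> [E]o.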

Assay [2] concerns the target T3, Human Neutrophil Cathepsin G (Homo sapiens, UniProt P08311).
T3 construct: from tissue; host or cells: human neutrophils
T3 sequence (P08311 21-255): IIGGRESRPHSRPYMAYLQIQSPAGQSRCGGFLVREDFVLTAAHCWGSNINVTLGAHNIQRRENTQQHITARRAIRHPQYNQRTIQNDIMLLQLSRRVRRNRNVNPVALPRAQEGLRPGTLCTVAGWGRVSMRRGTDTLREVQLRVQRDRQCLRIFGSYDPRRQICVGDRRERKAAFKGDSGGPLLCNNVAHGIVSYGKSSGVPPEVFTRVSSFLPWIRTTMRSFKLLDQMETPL
Kind of assay: Ki determination, human neutrophil cathepsin G (N-Suc-Ala-Ala-Pro-Phe-pNA). The following applies: 625 mM Tris-HCl, pH 7.5, 2.5 mM MgCl2, 0.125% Brij 35; read-out: Experimentally Determined Ki, Cathepsin G. An outline of the steps:
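Cathepsin G preincubated with test compound 15 min at 37° C, then N-Suc-Ala-Ala-Pro-Phe-pNA added in 625 mM Tris-HCl pH 7.5, 2.5 mM MgCl2, 0.125% Brij 35. p-Nitroaniline read at 405 nm.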

Another assay has as its target T4, Human plasma plasmin (Homo sapiens, UniProt P00747).
T4 construct: from tissue; host or cells: human plasma
Kind of assay: Ki determination, human plasma plasmin (Tosyl-Gly-Pro-Lys-pNA). The following applies: 100 mM Tris-HCl, pH 7.4, 100 mM NaCl, 0.05% Triton X-100; read-out: Experimentally Determined Ki, Plasmin. The essentials: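 Enzyme preincubated with inhibitor 15 min at 37° C. in 100 mM Tris-HCl pH 7.4, 100 mM NaCl, 0.05% Triton X-100, then Tosyl-Gly-Pro-Lys-pNA added; p-nitroaniline release followed at 405 nm. Ki from tight-binding equation (active-site-titrated [E]o), corrected for substrate, or competitive-inhibitor equation when Ki >>[E]o.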

A further assay deals with T5, Human plasma kallikrein (Homo sapiens, UniProt P03952).
T5 construct: from tissue; host or cells: human plasma
Kind of assay: Ki determination, human plasma kallikrein (H-D-Prolyl-Phe-Arg-pNA). The note with it: 50 mM Tris-HCl, pH 7.8, 200 mM NaCl, 0.05% BSA; read-out: Experimentally Determined Ki, Plasma Kallikrein. The essentials:
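Enzyme preincubated with test compound 15 min at 37° C in 50 mM Tris-HCl pH 7.8, 200 mM NaCl, 0.05% BSA; residual activity read at 405 nm after adding H-D-Prolyl-Phe-Arg-pNA (plasma) or DL-Val-Leu-Arg-pNA (tissue). Ki from tight-binding equation (enzyme active-site titrated) corrected for substrate, or competitive-inhibitor equation when Ki >>[E]o.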

T4 sequence (P00747 581-810 limits assumed): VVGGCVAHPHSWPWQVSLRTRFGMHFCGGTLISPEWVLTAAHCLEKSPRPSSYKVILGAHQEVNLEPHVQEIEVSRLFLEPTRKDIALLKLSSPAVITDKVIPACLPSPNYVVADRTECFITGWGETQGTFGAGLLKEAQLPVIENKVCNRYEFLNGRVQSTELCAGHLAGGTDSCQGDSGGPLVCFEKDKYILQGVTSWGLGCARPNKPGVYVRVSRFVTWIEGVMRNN
T4 sequence (P00747 97-580 partner limits assumed): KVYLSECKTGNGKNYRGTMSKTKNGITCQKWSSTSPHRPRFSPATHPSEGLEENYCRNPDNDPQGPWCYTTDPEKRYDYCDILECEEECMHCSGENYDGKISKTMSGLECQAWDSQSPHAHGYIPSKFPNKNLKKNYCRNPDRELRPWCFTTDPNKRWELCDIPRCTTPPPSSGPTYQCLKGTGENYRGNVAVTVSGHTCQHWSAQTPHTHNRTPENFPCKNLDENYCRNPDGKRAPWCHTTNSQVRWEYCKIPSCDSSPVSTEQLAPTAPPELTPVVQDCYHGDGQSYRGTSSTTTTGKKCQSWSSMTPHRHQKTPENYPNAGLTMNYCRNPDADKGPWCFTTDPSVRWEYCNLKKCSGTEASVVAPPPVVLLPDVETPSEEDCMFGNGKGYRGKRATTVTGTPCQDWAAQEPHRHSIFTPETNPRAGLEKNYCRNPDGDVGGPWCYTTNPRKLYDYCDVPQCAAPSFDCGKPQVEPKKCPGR
T2 sequence (P00742 235-488 limits assumed): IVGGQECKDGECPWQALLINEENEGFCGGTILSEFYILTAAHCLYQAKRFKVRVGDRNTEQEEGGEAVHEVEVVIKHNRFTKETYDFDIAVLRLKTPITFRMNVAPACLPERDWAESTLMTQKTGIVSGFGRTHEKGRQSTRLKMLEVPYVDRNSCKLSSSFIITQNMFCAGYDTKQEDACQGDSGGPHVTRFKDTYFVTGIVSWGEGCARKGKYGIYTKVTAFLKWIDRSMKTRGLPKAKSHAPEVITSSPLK
T2 sequence (P00742 41-179 partner limits assumed): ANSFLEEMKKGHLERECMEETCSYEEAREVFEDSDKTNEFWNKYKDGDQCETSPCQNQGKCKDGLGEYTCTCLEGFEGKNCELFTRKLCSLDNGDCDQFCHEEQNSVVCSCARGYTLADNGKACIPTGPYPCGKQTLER
T5 sequence (P03952 391-638 limits assumed): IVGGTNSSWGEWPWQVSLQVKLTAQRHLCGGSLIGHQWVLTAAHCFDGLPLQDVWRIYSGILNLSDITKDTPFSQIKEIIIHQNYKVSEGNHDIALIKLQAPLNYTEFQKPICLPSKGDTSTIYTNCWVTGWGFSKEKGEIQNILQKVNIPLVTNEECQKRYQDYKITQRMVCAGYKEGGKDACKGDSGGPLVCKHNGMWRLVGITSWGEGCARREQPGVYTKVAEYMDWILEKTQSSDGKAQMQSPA
T5 sequence (P03952 20-390 partner limits assumed): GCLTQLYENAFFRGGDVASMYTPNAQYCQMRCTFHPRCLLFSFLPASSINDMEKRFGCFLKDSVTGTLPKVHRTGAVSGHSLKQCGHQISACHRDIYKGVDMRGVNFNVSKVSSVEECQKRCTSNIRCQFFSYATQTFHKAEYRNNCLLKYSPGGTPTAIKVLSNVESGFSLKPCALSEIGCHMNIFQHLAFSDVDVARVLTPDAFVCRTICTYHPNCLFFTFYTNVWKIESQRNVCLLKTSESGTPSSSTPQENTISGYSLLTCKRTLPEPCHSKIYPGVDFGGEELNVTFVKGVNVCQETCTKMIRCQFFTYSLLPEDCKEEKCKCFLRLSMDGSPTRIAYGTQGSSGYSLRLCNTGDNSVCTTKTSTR

One may read the Ki as the equilibrium dissociation constant of an inhibitor or competing ligand from its target. With `N=C(N)c1cccc(S(=O)(=O)NCc2ccc(OCCCCCCOc3ccc(CNS(=O)(=O)c4cccc(C(=N)N)c4)cc3)cc2)c1` [Example 43, 1,6-Bis-{4-[(3-carbamimidoyl-benzenesulfonylamino)-methyl]-phenoxy}-hexane], the Ki in assay [1] is > 100 µM; on Human plasma factor Xa, 15.6 µM; in assay [2], > 100 µM; at Human plasma plasmin it was 2.6 µM; on Human plasma kallikrein, > 100 µM.
With `N=C(N)c1ccc(S(=O)(=O)NCc2ccc(OCCCOc3ccc(CNS(=O)(=O)c4ccc(C(=N)N)cc4)cc3)cc2)cc1` [Example 50, 1,3-Bis-{4-[(4-carbamimidoyl-benzenesulfonylamino)-methyl]-phenoxy}-propane], the Ki is > 100 µM in assay [1]; > 100 µM on Human plasma factor Xa; > 100 µM in assay [2]; 6.1 µM at Human plasma plasmin; > 100 µM at Human plasma kallikrein.
Turning to `N=C(N)c1cccc(C(=O)NCc2ccc(OCCCCOc3ccc(CNC(=O)c4cccc(C(=N)N)c4)cc3)cc2)c1` [Example 61, 1,4-Bis-{4-[(3-carbamimidoyl-benzenecarbonylamino)-methyl]-phenoxy}-butane], the Ki in assay [1] was > 100 µM; at Human plasma factor Xa, 1 µM; in assay [2], > 100 µM; at Human plasma plasmin, 6 µM; at Human plasma kallikrein, 7.7 µM.
On to `N=C(N)c1ccc(C(=O)NCc2ccc(OCCCOc3ccc(CNC(=O)c4cccc(C(=N)N)c4)cc3)cc2)cc1` [Example 85, 4-Carbamimidoyl-N-[4-(3-{4-[(3-carbamimidoyl-benzoylamino)-methyl]-phenoxy}-propoxy)-benzyl]-benzamide], for which the Ki is > 100 µM in assay [1]; 2.2 µM at Human plasma factor Xa; > 100 µM in assay [2]; 5.2 µM on Human plasma plasmin; 1.7 µM at Human plasma kallikrein.
With `N=C(N)c1cccc(C(=O)NCc2ccc(OCCCCCOc3ccc(CNC(=O)c4cccc(C(=N)N)c4)cc3)cc2)c1` [Example 55, 1,5-Bis-{4-[(3-carbamimidoyl-benzenecarbonylamino)-methyl]-phenoxy}-pentane], the Ki was > 100 µM in assay [1]; 1.8 µM on Human plasma factor Xa; > 100 µM in assay [2]; 7.6 µM on Human plasma plasmin; 11 µM at Human plasma kallikrein.
In the case of `N=C(N)c1ccc(C(=O)NCc2cccc(OCCCCCOc3cccc(CNC(=O)c4ccc(C(=N)N)cc4)c3)c2)cc1` [Example 76, 1,5-Bis-{3-[(4-carbamimidoyl-benzenecarbonylamino)-methyl]-phenoxy}-pentane], the Ki in assay [1] is > 100 µM; at Human plasma factor Xa, > 100 µM; in assay [2], > 100 µM; on Human plasma plasmin, > 100 µM; on Human plasma kallikrein, 2.8 µM.
`N=C(N)c1ccc(C(=O)NCc2ccc(OCC3(COc4ccc(CNC(=O)c5ccc(C(=N)N)cc5)cc4)CCC3)cc2)cc1` [Example 93, 1,1-Bis-{4-[(4-carbamimidoyl-benzoyl-amino)-methyl]-phenoxy-methyl}-cyclobutane]: the inhibition constant (Ki) in assay [1] is > 100 µM; at Human plasma factor Xa it was 15 µM; in assay [2], > 100 µM; on Human plasma plasmin it was 6.7 µM; on Human plasma kallikrein it was 3.9 µM.
For `N=C(N)c1cccc(S(=O)(=O)NCc2ccc(OCCCOc3ccc(CNS(=O)(=O)c4cccc(C(=N)N)c4)cc3)cc2)c1` [Example 49, 3,1-Bis-{4-[(3-carbamimidoyl-benzenesulfonylamino)-methyl]-phenoxy}-propane], the Ki is > 100 µM in assay [1]; 7.4 µM at Human plasma factor Xa; > 100 µM in assay [2]; 0.74 µM at Human plasma plasmin; 6 µM at Human plasma kallikrein.
Consider `N=C(N)c1cccc(S(=O)(=O)NCc2ccc(OCCCCCCCOc3ccc(CNS(=O)(=O)c4cccc(C(=N)N)c4)cc3)cc2)c1` [Example 45, 1,7-Bis-{4-[(3-carbamimidoyl-benzenesulfonylamino)-methyl]-phenoxy}-heptane], for which the inhibitory constant (Ki) in assay [1] was > 100 µM; on Human plasma factor Xa, 7.6 µM; in assay [2], > 100 µM; at Human plasma plasmin, 10 µM; on Human plasma kallikrein it was 34 µM.
